# Structures can show the parent of a compound that is named as a salt.
# Tests used:
# [1] = Oral LD 50 determined according to the method of Karber and Behrens on mice; settings: mouse, in vivo, female mice 24 to 26 g, read-out: LD 50 per os
# Procedure: The products of the invention are hardly toxic.
# The oral LD 50 (see the table below) was determined according to the method of Karber and Behrens (Arch. Exp. Pathol. Pharm. 177, 1935, page 379) on mice EVIC CEBA .female. Swiss EOPS NMRI Han of 24 to 26 g weight.
# [2] = Solubility of the isolated product; assay type: physicochemical; settings: in words
# [3] = system: rats; assay: Hypolipemic activity: hyperlipidemia experimentally induced by Triton in rats; assay type: in vivo; set-up: key: NS: non-significant result; settings: 18 h after i.v. Triton; for Hypolipemic activity, percentages of diminution: Triglycerides / Hypolipemic activity, percentages of diminution: total lipids / Hypolipemic activity, percentages of diminution: β-lipoprotein / Hypolipemic activity, percentages of diminution: Cholesterol: single p.o. dose mg/kg: clofibrate 225, Ex 1, 2: 500, Ex 3: 270, Ex 4: 127, Ex 5: 175, Ex 6: 310, Ex 12: 250, Ex 13: 140, Ex 14: 95; for Hypolipemic activity, percentages of diminution: optical serum density: serum at 691 nanometres, single p.o. dose mg/kg: Ex 1, 2: 500, Ex 3: 270, Ex 4: 127, Ex 5: 175, Ex 6: 310, Ex 12: 250, Ex 13: 140, Ex 14: 95
# Procedure: The technique used to show these properties has been described by M. Friedman and S. E. Byers in : J. Exptl. Med. 97, 117, 1953 and likewise by S. Garattini and colleagues in Arzneim. Forsch. 9, 206, 1959.
# The rats received intravenously 0.3 ml per 100 grams of body weight of a solution of Triton 13 39 at 10%. The products to be tested are administered simultaneously orally at a dose corresponding to a tenth of their LD 50, determined orally in mice, without the dose used exceeding 500 mg/kg.
# Eighteen hours after the injection of Triton the animals are sacrificed by section of the carotid and the blood is collected to determined the lipid parameters : cholesterol (auto-analyser Technicon AA II Lieberman Burchard), beta- lipoproteins, (Burnstein), total lipids (Chabrol and Charonnat), triglycerides (Boehringer enzymatic).
# The optical density of the serum at 691 nanometres is measured in each case. Each product was tested on ten animals. The statistic calculations were carried out on the averages affected by their divergence from the average using the Student test.
# The reference compound used is clofibrate.
SMILES,LD50 [1] [mg/kg],solubility [2],"Hypolipemic activity, percentages of diminution: Triglycerides [3]","Hypolipemic activity, percentages of diminution: total lipids [3]","Hypolipemic activity, percentages of diminution: β-lipoprotein [3]","Hypolipemic activity, percentages of diminution: optical serum density [3]","Hypolipemic activity, percentages of diminution: Cholesterol [3]"
"CCOC(=O)C(C)(C)Oc1ccc(Cl)cc1 [Clofibrate, reference compound]",2300,–,–,–,–,–,–
"NC(CO)CSCSCC(N)CO (centres unmarked) [Example 1, 2,8-diamino-4,6-dithia-1,9-nonanediol]",> 5000,"soluble in the cold in water, alcohol, ether",NS,NS,NS,NS,–
"NC(CO)CSCCCCSCC(N)CO (centres unmarked) [Example 2, 2,11-diamino-4,9-dithia-1,12-dodecanediol]",5000,"soluble in water, alcohols, ether",–,NS,NS,NS,NS
"NC(CO)CSCCCCCCSCC(N)CO (centres unmarked) [Example 3, 2,13-diamino-4,11-dithia-1,14-tetradecanediol]",2700,"soluble in water, alcohols, ether",–,–,–,–,–
"NC(CO)CSCCCCCCCCSCC(N)CO (centres unmarked) [Example 4, 2,15-diamino-4,13-dithia-1,16-hexadecanediol]",1280,"soluble in water, alcohols, ether",–,NS,–,–,–
"NC(CO)CSCCCCCCCCCCSCC(N)CO (centres unmarked) [Example 5, 2,17-diamino-4,15-dithia-1,18-octadecanediol]",1750,–,–,NS,NS,–,–
"NC(CO)CSSCC(N)CO (centres unmarked) [Example 6, 2,7-diamino-4,5-dithia-1,8-octanediol]",3100,"soluble in water, methanol, ethanol",–,–,–,–,–
"NC(CO)CCSCSCCC(N)CO (centres unmarked) [Example 8, neutral oxalate of 2,10-diamino-5,7-dithia-1,11 undecanediol]",–,Soluble in water and alcohols,–,–,–,–,–
"NC(CO)CCSCCSCCC(N)CO (centres unmarked) [Example 9, neutral oxalate of 2,11-diamino-5,8-dithia-1,12 dodecanediol]",–,soluble in water and alcohols,–,–,–,–,–
"NC(CO)CCSCCCCSCCC(N)CO (centres unmarked) [Example 10, mandelate of 2,13-diamino-5,10-dithia-1,14-tetradecanediol]",–,"soluble in water, alcohols and dimethylformamide",–,–,–,–,–
"NC(CO)CCSCCCCCSCCC(N)CO (centres unmarked) [Example 11, mandelate of 2,14-diamino-5,11-dithia-1,15-pentadecanediol]",–,"Soluble in water, alcohols, DMF",–,–,–,–,–
"NC(CO)CCSCCCCCCSCCC(N)CO (centres unmarked) [Example 12, 2,15-diamino-5,12-dithia-1,16-hexadecanediol]",2500,soluble in water and alcohols,NS,NS,–,NS,NS
"NC(CO)CCSCCCCCCCCSCCC(N)CO (centres unmarked) [Example 13, 2,17-diamino-5,14-dithia-1,18-octadecanediol]",1400,soluble in water and alcohols,–,–,–,–,–
"NC(CO)CCSCCCCCCCCCCSCCC(N)CO (centres unmarked) [Example 14, 2,19-diamino-5,16-dithia-1,20-eicosanediol]",950,soluble in water and alcohols,NS,NS,–,NS,NS

# Reference: patent publication US4153729A, “Therapeutically useful cysteinol and homocysteinol derivatives” (Recherches Pharmaceutiques et Scientifiques, priority 1977, dated 1979)
